Data from US10792275B2 (priority 2016, dated 2020).

Tests used:
[1] = test system: H1N1 virus; experiment: in vivo antiviral effect in mice infected with H1N1; conditions: for survival rate: nasal administration
[2] = test system: influenza virus; experiment: microbe, parasite or virus in culture; type: cell-based; conditions: for Selectivity Index: CC50 divided by IC50; for IC50: unidentified influenza virus
[3] = water-solubility; type: physicochemical
[4] = in vitro; conditions: dog
[5] = test system: influenza viruses H1N1; H3N2; H5N1; H7N7; H7N9; H9N2; type: cell-based, influenza virus A; conditions: 20, 5, 1.25, 0.31 μM; 24 h after inoculation; MOI 0.002; RT-qPCR
[6] = test system: influenza virus; experiment: lung viral load and histopathology in infected mice (PB2-39 study); conditions: fourth day following inoculation
[7] = test system: H5N1 influenza virus; type: in vivo, BALB/c mice; conditions: 1×LD50 dose of H5N1; nasal administration, 5 doses; PB2-39 2.5 mg/kg, zanamivir 20 μl of 2.5 mg/ml
[8] = test system: influenza H1N1 virus; type: cell-based, influenza virus A
[9] = test system: H7N9 virus; type: in vivo, BALB/c mice; conditions: 1×LD80 dose of H7N9; nasal administration, 5 doses; PB2-39 2.5 mg/kg, zanamivir 20 μl of 2.5 mg/ml
[10] = 1×LD60 dose of H1N1, PB2-19 1 mg/kg
[11] = 1×LD60 dose of H1N1, PB2-19 1 mg/kg body weight
[12] = 5×LD50 dose of H1N1, 5 doses from 6 h after inoculation, PB2-39 2.5 mg/kg, zanamivir 20 μl of 2.5 mg/ml

## Cc1cc(C(=O)Nc2ccc(I)cc2C(=O)O)ccc1[N+](=O)[O-] [PB2-19, 5-iodo-2-[(3-methyl-4-nitrobenzoyl)amino]benzoic acid]
[1]; [10]
  histopathological findings: corroborated the ability of PB2-19 to provide in vivo anti-influenza effects
  viral proliferation in the lungs: effectively reduce
[1]; [11]
  survival rate: 100%
[2]
  Selectivity Index: 273
  IC50: 0.55 ± 0.05 µM
[3]
  water-solubility: limited
[4]
  CC50: 150 ± 10 µM

## Cc1ccc(C(c2c(O)c3ccccc3oc2=O)c2c(O)c3ccccc3oc2=O)cc1 [PB2-35, 3,3′-[(4-methylphenyl)methylene]bis(4-hydroxy-2H-chromen-2-one)]
[2]
  Selectivity Index: 40
  IC50: 1.24 ± 0.21 µM
[4]
  CC50: 50 ± 5 µM

## O=c1oc2ccccc2c(O)c1C1c2c(c3ccccc3oc2=O)Oc2c1c(=O)oc1ccccc21 [PB2-39, 7-(4-hydroxy-2-oxo-2H-chromen-3-yl)-6H,7H,8Hchromeno[3,4′:5,6]pyrano[3,2-c]chromene-6,8-dione]
[1]; [12]
  survival rate: 100%
[2]
  IC50: 1.22 ± 0.23 µM
[5]
  inhibition of replication of tested influenza strains: inhibited the replication of all the tested influenza strains in a dose-dependent manner
[6]; plaque assay, PB2-39 2.5 mg/kg nasal
  amounts of viruses in lung tissues: significantly reduced
[6]; lung tissues
  histopathological examination: interstitial inflammatory cell infiltration and alveolar injury: improvement
[7]
  survival rate: 100%
[8]
  reduction of the viral titer of supernatant: 100-1000 times
[4]
  CC50: > 1000 µM
[9]
  survival rate: 100%

## CC(=O)N[C@H]1[C@H]([C@H](O)[C@H](O)CO)OC(C(=O)O)=C[C@@H]1N=C(N)N [zanamivir, reference compound]
[1]; [11]
  survival rate: 100%
[1]; [12]
  survival rate: 100%
[7]
  survival rate: 100%
[9]
  survival rate: 100%
